Data taken from patent US9409952B2, “Peptide-compound cyclization method” (Chugai Seiyaku Kabushiki Kaisha, priority 2011, dated 2016).
Starred links: 1 amine or outer side, 2 acyl side, 3 side chain; linkers in the order of their positions; H or OH if unused. Positions of bridges follow the written chain, without caps; N, C: chain ends. Non-standard residues stand in square brackets, D forms with d. Residues, ends and D or L forms follow the SMILES beside them. ξ: configuration not given here. *: point of attachment. Cys(O)(CH2CO) = O=C([C@H](C[S+]([O-])CC(=O)[*:3])N[*:1])[*:2]; NMeF = CN[C@@H](Cc1ccccc1)C(=O)O; NMeI = CC[C@H](C)[C@H](NC)C(=O)O; NMeL = CN[C@@H](CC(C)C)C(=O)O; NMeA = CN[C@@H](C)C(=O)O; Piperidide = C1CCN(*)CC1; {Puro} = puromycin; ξC = NC(CS)C(=O)O; Sar = CNCC(=O)O; tBu = CC(C)(C)*

How the values were obtained:
[1] = 2 h, pH 7.1
[2] = Serum stability test in mouse serum; assay type: in vitro ADME; conditions: both sexes, pH 7.4, two hours, read-out: Serum stability t1/2 (Mouse)
Method: (§1) The obtained compound was metabolically reacted at a concentration of 2 uM with mouse serum (male/female mixed, Valley Biomedical, USA) (adjusted to pH 7.4 with 33.5 mM HEPES buffer) for two hours. Deproteinization treatment with acetonitrile was provided over time, the amount of the remaining unchanged compound was analyzed using LC/MS, and the metabolic half-life (t1/2) was calculated. A microsome solution prepared at 0.5 mg protein/mL from mouse hepatic microsome and small intestinal microsome (male, XENOTECH, USA) using 100 mM phosphate buffer (pH 7.4) was metabolically reacted with the compound at a concentration of 1 uM for 30 minutes in the presence or absence of NADPH. Deproteinization treatment with acetonitrile was provided over time, the amount of the remaining unchanged compound was analyzed using LC/MS, and the hepatic-intrinsic clearance (CLh, int) and the small intestinal-intrinsic clearance (CLg, int) were calculated (Table 7). Such peptides were sufficiently slowly metabolized by hydrolysis with peptidases or the like in mouse sera and microsomes, contrary to peptides composed of natural amino acids having low lipophilicity.

[3] = Metabolic stability in mouse hepatic microsome; assay type: in vitro ADME; conditions: for Hepatic Microsome CLh, int (Mouse) In the absence of NADPH: without NADPH; for microsomal CLint at 1 uM: male, liver microsomes, pH 7.4; for Mouse Hepatic Microsome CLh, int: Table 9, thioether versus sulfoxide
[4] = Metabolic stability in mouse small intestinal microsome; assay type: in vitro ADME; conditions: for Intestinal Microsome CLg, int Mouse: Table 8, mouse; for oxidative metabolic rate relative to the parent thioether, small intestinal microsomes: compared with Compound P-112
Method: as §1
Metabolic stability tests were carried out in the same manner as shown in 2-1.

[5] = Metabolic stability in human hepatic microsome; assay type: in vitro ADME; conditions: for microsomal CLint at 1 uM: pH 7.4, Hepatic Microsome CLhint Human
[6] = target: T1, soluble human IL-6R (IL-6R) (Homo sapiens, UniProt P08887); assay: IL-6/IL-6R interaction by electrochemiluminescence immunoassay (protein denaturation by desulfurization solution); assay type: binding; conditions: 25 mM HEPES-K pH 7.6, 200 mM TCEP, 250 mM VA-044, 10 mM Cys, room temperature, 50 minutes
T1 sequence (P08887 20-355 limits assumed): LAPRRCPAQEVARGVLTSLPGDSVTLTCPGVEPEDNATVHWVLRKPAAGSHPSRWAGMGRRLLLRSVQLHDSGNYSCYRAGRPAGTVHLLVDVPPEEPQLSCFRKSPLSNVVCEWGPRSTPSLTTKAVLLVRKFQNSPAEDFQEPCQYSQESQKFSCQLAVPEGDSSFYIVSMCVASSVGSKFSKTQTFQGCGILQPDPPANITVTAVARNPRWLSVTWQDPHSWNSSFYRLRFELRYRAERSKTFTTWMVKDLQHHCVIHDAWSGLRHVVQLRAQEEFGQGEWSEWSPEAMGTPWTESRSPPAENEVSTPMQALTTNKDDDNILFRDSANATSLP
Method: Protein denaturation by a desulfurization reaction solution was evaluated (FIG. 34). As a model system, the effect of the desulfurization reaction condition on IL-6R was evaluated by detecting interaction between IL-6 and IL-6R using electrochemiluminescence immunoassay. First, 750 ng of anti-IL-6R antibody clone No. 17506 (R&D biosystems) was applied to a MSD Multi-array 384-well plate (MSD) and incubated at 4° C. overnight so that the antibody was immobilized on to the plate. The plate was washed with 80 μl of PBST three times to remove the unbound antibody, and blocking was then carried out with 2% skimmed milk for 1 hour. The blocking agent was washed away from the plate with 80 μl of PBST three times, after which 10 μl of 25 nM soluble human IL-6R (IL-6R) was added and the plate was shaken at room temperature for 50 minutes. The plate was washed with 80 μl of PBST three times, a desulfurization reaction solution (25 mM HEPES-K (pH 7.6), 200 mM TCEP, 250 mM VA-044 and 10 mM Cys) was added and the plate was shaken at room temperature for 50 minutes. The plate was washed with 80 μl of PBST three times, 10 μl of human IL-6-BAP (500 nM) was added and the plate was shaken at room temperature for 50 minutes. […] The plate was washed with 80 μl of PBST three times, and 35 μl of 2× read buffer (MSD, R92SC-3) was added, followed by measurement with SECTOR Imager 2400 (MSD) (FIG. 34).

[7] = 0.5 mg protein/mL, 1 uM, 30 minutes
[8] = mouse, 0.5 mg protein/mL, 1 uM, 30 minutes, with NADPH, read-out: Hepatic Microsome CLh, int (Mouse) In the presence of NADPH

5′-AGCUUAGUCA-puromycin-3′ (3' {Puro}, sugars by position and backbone not given here) [Compound RP-1]
amount of remaining RNA compound under desulfurization reaction condition [1]: not changed

CC(C)C[C@H]1C(=O)N[C@@H](COC(C)(C)C)C(=O)N[C@H](C(=O)N2CCCCC2)CSCC(=O)N(C)[C@@H](C)C(=O)N(C)[C@@H](Cc2ccccc2)C(=O)N(C)[C@@H](CC(C)C)C(=O)N[C@@H]([C@@H](C)O)C(=O)N(C)CC(=O)N1C [Compound P-102, Ac*-MeAla-MePhe-MeLeu-Thr-MeGly-MeLeu-Ser(tBu)-Cys*-piperidine] ({CH2CO}-[NMeA][NMeF][NMeL]T[Sar][NMeL]S(tBu)C-Piperidide; thioether N-8)
half-life at 2 uM [2]: > 60 h | Hepatic Microsome CLh, int (Mouse) In the absence of NADPH [3, 7]: 0 ul/min/mg Protein | Hepatic Microsome CLhint Mouse ([3]; Table 8, mouse): 55.1 ul/min/mg Protein | microsomal CLint at 1 uM [3, 8]: 55.1 µL/min/mg | Intestinal Microsome CLg, int Mouse [4]: 79.0 ul/min/mg Protein | Hepatic microsome CLhint (Human) In the absence of NADPH [5]: 3 ul/min/mg Protein | Hepatic microsome CLhint (Human) In the presence of NADPH [5]: 124 ul/min/mg Protein | microsomal CLint at 1 uM ([5]; human, microsomes): 124 µL/min/mg

CC[C@H](C)[C@H]1C(=O)N[C@H](C(=O)N2CCCCC2)CSCC(=O)N(C)[C@@H](Cc2ccccc2)C(=O)N(C)[C@@H](CC(C)C)C(=O)N[C@@H]([C@@H](C)O)C(=O)N(C)CC(=O)N(C)[C@@H](CC(C)C)C(=O)N[C@@H](COC(C)(C)C)C(=O)N1C [Compound P-103, Ac*-MePhe-MeLeu-Thr-MeGly-MeLeu-Ser(tBu)-MeIle-Cys*-piperidine] ({CH2CO}-[NMeF][NMeL]T[Sar][NMeL]S(tBu)[NMeI]C-Piperidide; thioether N-8)
half-life at 2 uM [2]: > 60 h | Hepatic Microsome CLh, int (Mouse) In the absence of NADPH [3, 7]: 11.1 ul/min/mg Protein | Hepatic Microsome CLhint Mouse ([3]; Table 8, mouse): 63.0 ul/min/mg Protein | Mouse Hepatic Microsome CLh, int [3]: 63 ul/min/mg Protein | microsomal CLint at 1 uM [3, 8]: 63 µL/min/mg | Intestinal Microsome CLg, int Mouse [4]: 66.3 ul/min/mg Protein | Hepatic microsome CLhint (Human) In the absence of NADPH [5]: 3 ul/min/mg Protein | Hepatic microsome CLhint (Human) In the presence of NADPH [5]: 221 ul/min/mg Protein | microsomal CLint at 1 uM ([5]; human, microsomes): 221 µL/min/mg

CC[C@H](C)[C@H]1C(=O)N[C@H](C(=O)N2CCCCC2)CSCC(=O)N(C)[C@@H](C)C(=O)N(C)[C@@H](Cc2ccccc2)C(=O)N(C)[C@@H](CC(C)C)C(=O)N[C@@H]([C@@H](C)O)C(=O)N(C)CC(=O)N(C)[C@@H](CC(C)C)C(=O)N[C@@H](COC(C)(C)C)C(=O)N1C [Compound P-109, Ac*-MeAla-MePhe-MeLeu-Thr-MeGly-MeLeu-Ser(tBu)-MeIle-Cys*-piperidine] ({CH2CO}-[NMeA][NMeF][NMeL]T[Sar][NMeL]S(tBu)[NMeI]C-Piperidide; thioether N-9)
half-life at 2 uM [2]: > 60 h | Hepatic Microsome CLh, int (Mouse) In the absence of NADPH [3, 7]: 10.3 ul/min/mg Protein | Hepatic Microsome CLhint Mouse ([3]; Table 8, mouse): 57.4 ul/min/mg Protein | microsomal CLint at 1 uM [3, 8]: 57.4 µL/min/mg | Intestinal Microsome CLg, int Mouse [4]: 45.8 ul/min/mg Protein | Hepatic microsome CLhint (Human) In the absence of NADPH [5]: 11 ul/min/mg Protein | Hepatic microsome CLhint (Human) In the presence of NADPH [5]: 158 ul/min/mg Protein | microsomal CLint at 1 uM ([5]; human, microsomes): 158 µL/min/mg

CC[C@H](C)[C@H]1C(=O)NC(C(=O)N2CCCCC2)CSCC(=O)N(C)[C@@H](Cc2ccccc2)C(=O)N(C)[C@@H](C)C(=O)N(C)[C@@H](Cc2ccccc2)C(=O)N(C)[C@@H](CC(C)C)C(=O)N[C@@H]([C@@H](C)O)C(=O)N(C)CC(=O)N(C)[C@@H](CC(C)C)C(=O)N[C@@H](COC(C)(C)C)C(=O)N1C (stereo partly drawn) [Compound P-112, Ac*-MePhe-MeAla-MePhe-MeLeu-Thr-MeGly-MeLeu-Ser(tBu)-MeIle-Cys*-piperidine] ({CH2CO}-[NMeF][NMeA][NMeF][NMeL]T[Sar][NMeL]S(tBu)[NMeI][ξC]-Piperidide; thioether N-10)
half-life at 2 uM [2]: > 60 h | Hepatic Microsome CLh, int (Mouse) In the absence of NADPH [3, 7]: 17.9 ul/min/mg Protein | Hepatic Microsome CLhint Mouse ([3]; Table 8, mouse): 30.4 ul/min/mg Protein | Mouse Hepatic Microsome CLh, int [3]: 30.4 ul/min/mg Protein | microsomal CLint at 1 uM [3, 8]: 30.4 µL/min/mg | Intestinal Microsome CLg, int Mouse [4]: 25.9 ul/min/mg Protein | microsomal CLint at 1 uM ([5]; human, microsomes): 118 µL/min/mg

CC[C@H](C)[C@H]1C(=O)N[C@H](C(=O)N2CCCCC2)C[S+]([O-])CC(=O)N(C)[C@@H](C)C(=O)N(C)[C@@H](Cc2ccccc2)C(=O)N(C)[C@@H](CC(C)C)C(=O)N[C@@H]([C@@H](C)O)C(=O)N(C)CC(=O)N(C)[C@@H](CC(C)C)C(=O)N[C@@H](COC(C)(C)C)C(=O)N1C (stereo partly drawn) [Compound P-114, (5S,8S,11S,14S,20S,23S,26S,29R)-8-benzyl-23-(tert-butoxymethyl)-26-((S)-sec-butyl)-14-((R)-1-hydroxyethyl)-11,20-diisobutyl-4,5,7,10,16,19,25-heptamethyl-29-(piperidine-1-carbonyl)-1-thia-4,7,10,13,16,19,22,25,28-nonaazacyclotriacontane-3,6,9,12,15,18,21,24,27-nonone 1-oxide] ([NMeA][NMeF][NMeL]T[Sar][NMeL]S(tBu)[NMeI][Cys(O)(CH2CO)]-Piperidide; lactam N-9)
oxidative metabolic rate relative to the parent thioether, mouse hepatic microsomes ([3]; compared with Compound P-112): 0.6 times | microsomal CLint at 1 uM ([3]; Table 8, mouse, read-out: Hepatic Microsome CLhint Mouse): 33.7 µL/min/mg | Intestinal Microsome CLg, int Mouse [4]: 9.1 ul/min/mg Protein | oxidative metabolic rate relative to the parent thioether, small intestinal microsomes [4]: 0.2 times | oxidative metabolic rate relative to the parent thioether, human hepatic microsomes [5]: about 0.3 times | microsomal CLint at 1 uM ([5]; human, microsomes): 35.3 µL/min/mg

CC[C@H](C)[C@H]1C(=O)N[C@H](C(=O)N2CCCCC2)CS(=O)(=O)CC(=O)N(C)[C@@H](C)C(=O)N(C)[C@@H](Cc2ccccc2)C(=O)N(C)[C@@H](CC(C)C)C(=O)N[C@@H]([C@@H](C)O)C(=O)N(C)CC(=O)N(C)[C@@H](CC(C)C)C(=O)N[C@@H](COC(C)(C)C)C(=O)N1C [Compound P-115, (5S,8S,11S,14S,20S,23S,26S,29R)-8-benzyl-23-(tert-butoxymethyl)-26-((S)-sec-butyl)-14-((R)-1-hydroxyethyl)-11,20-diisobutyl-4,5,7,10,16,19,25-heptamethyl-29-(piperidine-1-carbonyl)-1-thia-4,7,10,13,16,19,22,25,28-nonaazacyclotriacontane-3,6,9,12,15,18,21,24,27-nonone 1,1-dioxide]
Hepatic Microsome CLhint Mouse ([3]; Table 8, mouse): 42.1 ul/min/mg Protein | Mouse Hepatic Microsome CLh, int [3]: 12.1 ul/min/mg Protein | Intestinal Microsome CLg, int Mouse [4]: 21.8 ul/min/mg Protein | oxidative metabolic rate relative to the parent thioether, small intestinal microsomes [4]: about 0.5 times | Hepatic Microsome CLhint Human ([5]; human, microsomes, 1 uM, pH 7.4): 61.6 ul/min/mg Protein

OC1CSSCC1O (stereo not drawn) [oxidized DTT]
effect on interaction between IL-6R and IL-6 [6]: restores the interaction between IL-6R and IL-6
